{"source": "patent US12398098B2", "about": "“Waterborne crosslinker composition” (priority 2020, dated 2025)", "key": {"[1]": {"test_system": "mouse embryonic stem (mES) reporter cell lines"}, "Rtkn [2]": {"test_system": "Rtkn", "conditions": "mouse"}, "Rtkn [3]": {"test_system": "Rtkn", "assay": "ToxTracker genotoxicity assay, Rtkn-GFP reporter"}, "Bscl2": {"test_system": "Bscl2", "assay": "ToxTracker genotoxicity assay, Bscl2-GFP reporter"}, "[4]": {"conditions": "With S9 rat liver extract, at 25% cytotoxicity, 3 h exposure and 24 h recovery"}, "[5]": {"conditions": "With S9 rat liver extract, at 50% cytotoxicity, 3 h exposure and 24 h recovery"}, "[6]": {"conditions": "Without S9 rat liver extract, at 10% cytotoxicity, 24 h exposure"}, "[7]": {"conditions": "Without S9 rat liver extract, at 25% cytotoxicity, 24 h exposure"}, "[8]": {"conditions": "Without S9 rat liver extract, at 50% cytotoxicity, 24 h exposure"}, "[9]": {"conditions": "With S9 rat liver extract, at 10% cytotoxicity, 3 h exposure and 24 h recovery"}, "[10]": {"conditions": "Bscl2 and Rtkn, absence and presence of S9"}}, "note": "Where two headings read alike, the source gives them in different places."}
{"smiles": "CCC(COC(=O)CCN1CC1C)(COC(=O)CCN1CC1C)COC(=O)CCN1CC1C", "note": "(centres unmarked) [Comp. Ex. 1, trimethylolpropane tris(2-methyl aziridinepropionate), reference compound]", "values": [{"measurement": "Genotoxicity test result (overall)", "setting": "[1]", "value": "genotoxic"}]}
{"smiles": "CCCCOCC(CN1CC1C)OC(=O)NCCCCCCn1c(=O)n(CCCCCCNC(=O)OC(COCCCC)CN2CC2C)c(=O)n(CCCCCCNC(=O)OC(COCCCC)CN2CC2C)c1=O", "note": "(centres unmarked) [Composition 1]", "values": [{"measurement": "Rtkn GFP reporter induction level", "setting": "Rtkn [2]", "value": 0.9}, {"measurement": "Genotoxicity test result (overall)", "setting": "[1]", "value": "non-genotoxic"}, {"measurement": "Rtkn GFP reporter induction level", "setting": "Rtkn [3]; [4]", "value": 0.8}, {"measurement": "Rtkn GFP reporter induction level", "setting": "Rtkn [3]; [5]", "value": 0.6}, {"measurement": "Rtkn GFP reporter induction level", "setting": "Rtkn [3]; [6]", "value": 0.8}, {"measurement": "Rtkn GFP reporter induction level", "setting": "Rtkn [3]; [7]", "value": 0.8}, {"measurement": "Rtkn GFP reporter induction level", "setting": "Rtkn [3]; [8]", "value": 0.6}, {"measurement": "Bscl 2 GFP reporter induction level", "setting": "Bscl2; [5]", "value": 0.9}]}
{"smiles": "CC(CN1CC1C)OC(=O)NCCCCCCn1c(=O)n(CCCCCCNC(=O)OC(C)CN2CC2C)c(=O)n(CCCCCCNC(=O)OC(C)CN2CC2C)c1=O", "note": "(centres unmarked) [Composition 16]", "values": [{"measurement": "Genotoxicity test result (overall)", "setting": "[1]", "value": "non-genotoxic"}, {"measurement": "Rtkn GFP reporter induction level", "setting": "Rtkn [3]; [9]", "value": 1.2}, {"measurement": "Rtkn GFP reporter induction level", "setting": "Rtkn [3]; [4]", "value": 1.1}, {"measurement": "Rtkn GFP reporter induction level", "setting": "Rtkn [3]; [5]", "value": 0.9}, {"measurement": "Rtkn GFP reporter induction level", "setting": "Rtkn [3]; [6]", "value": 1.2}, {"measurement": "Rtkn GFP reporter induction level", "setting": "Rtkn [3]; [7]", "value": 1.2}, {"measurement": "Rtkn GFP reporter induction level", "setting": "Rtkn [3]; [8]", "value": 1.4}, {"measurement": "Bscl 2 GFP reporter induction level", "setting": "Bscl2; [9]", "value": 1.2}, {"measurement": "Bscl 2 GFP reporter induction level", "setting": "Bscl2; [4]", "value": 1.3}, {"measurement": "Bscl 2 GFP reporter induction level", "setting": "Bscl2; [5]", "value": 1.2}, {"measurement": "Bscl 2 GFP reporter induction level", "setting": "Bscl2; [6]", "value": 1.2}, {"measurement": "Bscl 2 GFP reporter induction level", "setting": "Bscl2; [7]", "value": 1.3}, {"measurement": "Bscl 2 GFP reporter induction level", "setting": "Bscl2; [8]", "value": 1.3}]}
{"smiles": "CCCCC(CC)COCC(CN1CC1C)OC(=O)NCCCCCCn1c(=O)n(CCCCCCNC(=O)OC(COCC(CC)CCCC)CN2CC2C)c(=O)n(CCCCCCNC(=O)OC(COCC(CC)CCCC)CN2CC2C)c1=O", "note": "(centres unmarked) [Composition 23]", "values": [{"measurement": "Genotoxicity test result (overall)", "setting": "[1]; [10]", "value": "non-genotoxic"}]}
{"smiles": "CCCCCCCCCC(=O)OCC(CN1CC1C)OC(=O)NCCCCCCn1c(=O)n(CCCCCCNC(=O)OC(COC(=O)CCCCCCCCC)CN2CC2C)c(=O)n(CCCCCCNC(=O)OC(COC(=O)CCCCCCCCC)CN2CC2C)c1=O", "note": "(centres unmarked) [Composition 25-2]", "values": [{"measurement": "Genotoxicity test result (overall)", "setting": "[1]; [10]", "value": "non-genotoxic"}, {"measurement": "Rtkn GFP reporter induction level", "setting": "Rtkn [3]; [9]", "value": 1.1}, {"measurement": "Rtkn GFP reporter induction level", "setting": "Rtkn [3]; [4]", "value": 1.1}, {"measurement": "Rtkn GFP reporter induction level", "setting": "Rtkn [3]; [5]", "value": 1.2}, {"measurement": "Rtkn GFP reporter induction level", "setting": "Rtkn [3]; [6]", "value": 1.1}, {"measurement": "Rtkn GFP reporter induction level", "setting": "Rtkn [3]; [7]", "value": 1.2}, {"measurement": "Rtkn GFP reporter induction level", "setting": "Rtkn [3]; [8]", "value": 1.0}, {"measurement": "Bscl 2 GFP reporter induction level", "setting": "Bscl2; [9]", "value": 1.0}, {"measurement": "Bscl 2 GFP reporter induction level", "setting": "Bscl2; [4]", "value": 1.1}, {"measurement": "Bscl 2 GFP reporter induction level", "setting": "Bscl2; [5]", "value": 1.1}, {"measurement": "Bscl 2 GFP reporter induction level", "setting": "Bscl2; [6]", "value": 1.1}, {"measurement": "Bscl 2 GFP reporter induction level", "setting": "Bscl2; [7]", "value": 1.2}, {"measurement": "Bscl 2 GFP reporter induction level", "setting": "Bscl2; [8]", "value": 1.0}]}
{"smiles": "CCCCOCC(CN1CC1C)OC(=O)NCCCCCC/N=c1\\oc(=O)n(CCCCCCNC(=O)OC(COCCCC)CN2CC2C)c(=O)n1CCCCCCNC(=O)OC(COCCCC)CN1CC1C", "note": "(centres unmarked) [Composition 27]", "values": [{"measurement": "Genotoxicity test result (overall)", "setting": "[1]; [10]", "value": "non-genotoxic"}]}
{"smiles": "CCCCOCC(CN1CC1(C)C)OC(=O)NCCCCCCn1c(=O)n(CCCCCCNC(=O)OC(COCCCC)CN2CC2(C)C)c(=O)n(CCCCCCNC(=O)OC(COCCCC)CN2CC2(C)C)c1=O", "note": "(centres unmarked) [Compound. 15]", "values": [{"measurement": "Genotoxicity test result (overall)", "setting": "[1]", "value": "non-genotoxic"}, {"measurement": "Rtkn GFP reporter induction level", "setting": "Rtkn [3]; [9]", "value": 1.2}, {"measurement": "Rtkn GFP reporter induction level", "setting": "Rtkn [3]; [4]", "value": 1.2}, {"measurement": "Rtkn GFP reporter induction level", "setting": "Rtkn [3]; [5]", "value": 1.3}, {"measurement": "Rtkn GFP reporter induction level", "setting": "Rtkn [3]; [6]", "value": 1.2}, {"measurement": "Rtkn GFP reporter induction level", "setting": "Rtkn [3]; [7]", "value": 1.2}, {"measurement": "Rtkn GFP reporter induction level", "setting": "Rtkn [3]; [8]", "value": 1.2}, {"measurement": "Bscl 2 GFP reporter induction level", "setting": "Bscl2; [9]", "value": 1.1}, {"measurement": "Bscl 2 GFP reporter induction level", "setting": "Bscl2; [4]", "value": 1.1}, {"measurement": "Bscl 2 GFP reporter induction level", "setting": "Bscl2; [5]", "value": 1.1}, {"measurement": "Bscl 2 GFP reporter induction level", "setting": "Bscl2; [6]", "value": 1.2}, {"measurement": "Bscl 2 GFP reporter induction level", "setting": "Bscl2; [7]", "value": 1.2}, {"measurement": "Bscl 2 GFP reporter induction level", "setting": "Bscl2; [8]", "value": 1.1}]}
